From US5612204A, “Biological degradative treatment of chlorine substituted ethylene” (priority 1994, dated 1997)
Where two headings read alike, the source gives them in different places.

Columns and labels:
[1] = test system: Nocardia corallina B-276 (FERM P-4094; FERM BP-5124; ATCC 31338); assay: Reaction rate of degradation of chlorine-substituted substrates (Example 4, Table 1); assay type: cell-based
Description: Experiments were also carried on tetrachloroethylene (perchloroethylene) (PCE) and 1,2-dichloroethane (1,2-DCA).
The initial concentration of each substrate in the liquid phase was selected so as not to exceed 20 mg/l, i.e., the range in which no inhibition on the enzyme reaction is expected. Specifically, the substrate was added in an amount of […] which corresponded to 11.2 mg/l of trichloroethylene in terms of initial concentration in the liquid phase. […] The cell concentration during the reaction was set at 4.0 g/l or 8.0 g/l, and the concentration of the substrate remaining in the gas phase was measured with time in the same manner as in Example 3 and converted to the concentration in the liquid phase, from which the reaction rate was calculated.

[2] = test system: E. coli JM109 (pDBB-1) (FERM BP-4250), transformant having an alkene monooxygenase gene of Nocardia corallina B-276 origin; assay: Degradation of trichloroethylene by transformant E. coli JM109 (pDBB-1) cell suspension (Example 2); assay type: cell-based, Escherichia coli; settings: 1 mM trichloroethylene, glucose added, 30° C., 12 hours
Description: LB medium (1.5 ml) (a liquid medium containing 10 g of Bacto-trypton, 5 g of Bacto-yeast extract, 10 g of sodium chloride, and deionized water to make 1 l, adjusted to pH 7.2 with a 1N aqueous […] solution, steam sterilized by autoclaving at 120° C. for 15 minutes) containing 50 μg/ml of ampicillin was inoculated with one loopful of E. coli JM109 (pDBB-1) (FERM BP-4250) using a platinum loop, which is a transformant having an alkene monooxygenase gene of Nocardia corallina B-276 origin, and incubated at 37° C. overnight (about 14 hours) for previous proliferation of the microorganism. Then, 100 ml of LB medium containing 50 μg/ml of ampicillin was inoculated with the resulting culture and incubated at 37° C. for 2 hours. To the culture was added isopropyl-β-D-thiogalactopyranoside (IPTG) at a final concentration of 1 mM, followed by further shake culture at 37° C. for 5 hours. A 10 ml aliquot of the resulting culture was centrifuged to collect the microbial cells, which were suspended in 2 ml of a minimal medium (K2 HPO4 1.74 g, MgSO4.7H2 O 1.5 g, FeSO4.H2 O 0.05 g, deionized water 1 l; adjusted to pH 8.0) to prepare a cell suspension. […]

[3] = test system: Nocardia corallina B-276 (FERM P-4094; FERM BP-5124; ATCC 31338); assay: Influence of trichloroethylene concentration on reaction rate of biological oxidation (Example 3); assay type: cell-based; settings: 35° C.
Source text: In the biological oxidation of trichloroethylene with Nocardia corallina B-276 (FERM […]; FERM BP-5124; ATCC 31338), the influence of the trichloroethylene concentration on the reaction rate was examined as follows.
Nocardia corallina B-276 (FERM P-4094; FERM BP-5124; ATCC 31338) was previously proliferated in the same manner as described in Example 1. The microbial cells collected were suspended in a medium (K2 HPO4 1.74 g, MgSO4 .7H2 O 1.5 g, FeSO4.H2 O 0.05 g, deionized water 1 l; adjusted to pH 8.0) to prepare a cell suspension.
In a 17 ml-volume flask was put 2 ml of the cell suspension, 100 μl of a 10% glucose solution added as an energy source, a varied amount of trichloroethylene added thereto, and the flask sealed and incubated at 35° C. for 5 hours while shaking to allow the cells to act on the trichloroethylene. The cell concentration was 2.44 g/l. A 1 ml aliquot of the gas was taken out every 1 hour from the gas phase of the sealed flask and analyzed by gas chromatography (column: Porapak Q) to measure the gaseous trichloroethylene concentration. The trichloroethylene concentration remaining in the liquid phase was calculated from the gaseous phase trichloroethylene concentration. This calculation was made on the assumption that the partitioning of trichloroethylene between the gas and liquid phases in the vial are obeyed by the partition law.
FIG. 3 is a graph of rate of reduction of liquid phase trichloroethylene concentration plotted against initial trichloroethylene concentration.

[4] = test system: Nocardia corallina B-276 (FERM P-4094; FERM BP-5124; ATCC 31338); assay: Degradation of trichloroethylene by Nocardia corallina B-276 cell suspension (Example 1); assay type: cell-based; settings: 1 mM trichloroethylene, glucose added, 30° C., 12 hours
Description: In a 500 ml Sakaguchi's flask was put 100 ml of NBG medium (a liquid medium containing 10 g of Lab-Lemco powder (produced by Oxoid Co., Ltd.), 10 g of bacteriological peptone, 10 g of glucose, 5 g of sodium chloride, and water to make 1 l, adjusted to pH 7.5 with a 1N aqueous sodium hydroxide solution, steam sterilized by autoclaving at 120° C. for 15 minutes) and inoculated with three loopfuls of Nocardia corallina B-276 (FERM P-4094; FERM BP-5124; ATCC 31338) using a platinum loop, followed by shake culture at 30° C. for 96 hours for previous proliferation.
The resulting culture was centrifuged to collect the microbial cells, which were suspended in 50 ml of a minimal medium (K2 HPO4 1.74 g, MgSO4. 7H2 O 1.5 g, FeSO4. H2 O 0.05 g, deionized water 1 l; adjusted to pH 8.0) to prepare a cell suspension. […]
For comparison, 50 ml of a cell-free medium (K2 HPO4 1.74 g, MgSO4.7H2 O 1.5 g, FeSO4. H2 O 0.05 g, deionized water 1 l; adjusted to pH 8.0) was put to a flask of the same volume as used above, and 2.5 ml of a 10% glucose solution and trichloroethylene (final concentration: 1 mM) were added thereto. […] The signal intensity (I2) was 95% or more of the initial signal intensity (I0) measured on the medium immediately after addition of trichloroethylene.

[5] = Cell Concentration 4.0 g/l, initial substrate concentration not exceeding 20 mg/l

SMILES | Reaction Rate [1, 5] | degradability by Nocardia corallina B-276 ([1]; result in words) | degradability by Nocardia corallina B-276 [1] | Reaction Rate ([1]; cell concentration 4.0 g/l) | further results
ClC(Cl)=C(Cl)Cl [Tetrachloroethylene, tetrachloroethylene] | 0 mg/L/h | cannot be degraded |  |  | 
C=C(Cl)Cl [1,1-Dichloroethylene, 1,1-dichloroethylene] |  | can be degraded |  |  | Reaction Rate ([1]; Cell Concentration 8.0 g/l, initial substrate concentration not exceeding 20 mg/l): 14.8 mg/L/h; reaction rate, corresponding value (for the cell concentration of the other substrates) ([1]; converted from the 8.0 g/l measurement): 7.4 mg/l hr
Cl/C=C/Cl [trans-1,2-dichloroethylene] | 6.5 mg/L/h |  | can be degraded | 6.5 mg/l hr | 
ClCCCl [1,2-Dichloroethane, 1,2-dichloroethane] | 0 mg/L/h | cannot be degraded |  |  | 
Cl/C=C\Cl [cis-1,2-Dichloroethylene, cis-1,2-dichloroethylene] | 72.2 mg/L/h |  | can be degraded |  | 
ClC=C(Cl)Cl [Trichloroethylene, trichloroethylene] | 5.5 mg/L/h |  |  | 5.5 mg/l hr | trichloroethylene degraded [2]: about 17%; trichloroethylene concentration remaining in the medium (signal intensity I4 relative to I3) ([2]; sealed flask, gas chromatography): about 83%; Michaelis constant Km of the trichloroethylene substrate ([3]; cell concentration 2.44 g/l, calculated based on the results of FIG. 3): 90.4 mg/L; Km ([3]; cell concentration 2.44 g/l, calculated based on the results of FIG. 3, read-out: Michaelis constant Km of the trichloroethylene substrate): 678 µM; inhibition of the reaction by substrate ([3]; at least up to 90 mg/l of the initial trichloroethylene concentration in the liquid phase): no obvious inhibition; trichloroethylene degraded [4]: about 98%; trichloroethylene concentration remaining in the medium (signal intensity I1 relative to I2) ([4]; sealed flask, gas chromatography, relative to cell-free medium): about 2%
